Reference: the CheMixHub viscosity set

Assay: xn = mol fraction of the nth substance listed

C1CCOC1 + O
Conditions	viscosity [mPa·s]
298 K, 101 kPa, x2 = 0.217	0.5842
298 K, 101 kPa, x2 = 0.284	0.6433
298 K, 101 kPa, x2 = 0.331	0.6715
298 K, 101 kPa, x2 = 0.3845	0.7352
298 K, 101 kPa, x2 = 0.4994	0.9349
298 K, 101 kPa, x2 = 0.6293	1.22
298 K, 101 kPa, x2 = 0.8001	1.681
298 K, 101 kPa, x2 = 0.8523	1.745
298 K, 101 kPa, x2 = 0.9073	1.658
298.15 K, 101 kPa, x1 = 0.02	1.157
298.15 K, 101 kPa, x1 = 0.05	1.464
298.15 K, 101 kPa, x1 = 0.07	1.62
298.15 K, 101 kPa, x1 = 0.1001	1.749
298.15 K, 101 kPa, x1 = 0.1199	1.79
298.15 K, 101 kPa, x1 = 0.1499	1.796
298.15 K, 101 kPa, x1 = 0.1699	1.783
298.15 K, 101 kPa, x1 = 0.2	1.723
298.15 K, 101 kPa, x1 = 0.2199	1.671
298.15 K, 101 kPa, x1 = 0.25	1.586
298.15 K, 101 kPa, x1 = 0.2701	1.538
298.15 K, 101 kPa, x1 = 0.3002	1.445
298.15 K, 101 kPa, x1 = 0.3499	1.313
298.15 K, 101 kPa, x1 = 0.3999	1.172
298.15 K, 101 kPa, x1 = 0.4499	1.039
298.15 K, 101 kPa, x1 = 0.5001	0.9437
298.15 K, 101 kPa, x1 = 0.5998	0.7744
298.15 K, 101 kPa, x1 = 0.7001	0.65
298.15 K, 101 kPa, x1 = 0.8001	0.5622
298.15 K, 101 kPa, x1 = 0.9	0.4979
298.15 K, 101 kPa, x2 = 0.31	0.6564
298.15 K, 101 kPa, x2 = 0.5	0.9237
298.15 K, 101 kPa, x2 = 0.63	1.224
298.15 K, 101 kPa, x2 = 0.68	1.399
298.15 K, 101 kPa, x2 = 0.73	1.49
298.15 K, 101 kPa, x2 = 0.77	1.582
298.15 K, 101 kPa, x2 = 0.8	1.678
298.15 K, 101 kPa, x2 = 0.83	1.701
298.15 K, 101 kPa, x2 = 0.86	1.732
298.15 K, 101 kPa, x2 = 0.9	1.68
298.15 K, 101 kPa, x2 = 0.94	1.49
298.15 K, 101 kPa, x2 = 0.97	1.202
298.15 K, 101.32 kPa, x1 = 0.0423	1.362
298.15 K, 101.32 kPa, x1 = 0.0812	1.647
298.15 K, 101.32 kPa, x1 = 0.1809	1.741
298.15 K, 101.32 kPa, x1 = 0.3559	1.285
298.15 K, 101.32 kPa, x1 = 0.5248	0.892
298.15 K, 101.32 kPa, x1 = 0.7342	0.638
298.15 K, 101.32 kPa, x1 = 0.8468	0.554
298.15 K, 101.32 kPa, x2 = 0.0008	0.47
298.15 K, 101.33 kPa, x2 = 0.111	0.515
298.15 K, 101.33 kPa, x2 = 0.197	0.565
298.15 K, 101.33 kPa, x2 = 0.3027	0.65
298.15 K, 101.33 kPa, x2 = 0.4036	0.763
298.15 K, 101.33 kPa, x2 = 0.5028	0.916
298.15 K, 101.33 kPa, x2 = 0.6047	1.129
298.15 K, 101.33 kPa, x2 = 0.7032	1.394
298.15 K, 101.33 kPa, x2 = 0.8017	1.651
298.15 K, 101.33 kPa, x2 = 0.9013	1.665
303.15 K, 101 kPa, x1 = 0.02	1.025
303.15 K, 101 kPa, x1 = 0.05	1.276
303.15 K, 101 kPa, x1 = 0.07	1.398
303.15 K, 101 kPa, x1 = 0.1001	1.514
303.15 K, 101 kPa, x1 = 0.1199	1.549
303.15 K, 101 kPa, x1 = 0.1499	1.558
303.15 K, 101 kPa, x1 = 0.1699	1.55
303.15 K, 101 kPa, x1 = 0.2	1.504
303.15 K, 101 kPa, x1 = 0.2199	1.466
303.15 K, 101 kPa, x1 = 0.25	1.395
303.15 K, 101 kPa, x1 = 0.2701	1.358
303.15 K, 101 kPa, x1 = 0.3002	1.281
303.15 K, 101 kPa, x1 = 0.3499	1.174
303.15 K, 101 kPa, x1 = 0.3999	1.056
303.15 K, 101 kPa, x1 = 0.4499	0.9408
303.15 K, 101 kPa, x1 = 0.5001	0.8597
303.15 K, 101 kPa, x1 = 0.5998	0.7127
303.15 K, 101 kPa, x1 = 0.7001	0.6034
303.15 K, 101 kPa, x1 = 0.8001	0.5252
303.15 K, 101 kPa, x1 = 0.9	0.4699
303.15 K, 101.33 kPa, x1 = 0.0971	1.444
303.15 K, 101.33 kPa, x1 = 0.1497	1.523
303.15 K, 101.33 kPa, x1 = 0.2011	1.477
303.15 K, 101.33 kPa, x1 = 0.3057	1.257
303.15 K, 101.33 kPa, x1 = 0.3979	1.04
303.15 K, 101.33 kPa, x1 = 0.4978	0.8602
303.15 K, 101.33 kPa, x1 = 0.6026	0.7189
303.15 K, 101.33 kPa, x1 = 0.7025	0.6137
303.15 K, 101.33 kPa, x1 = 0.8003	0.5413
303.15 K, 101.33 kPa, x1 = 0.8978	0.4813
308.15 K, 101 kPa, x1 = 0.02	0.9079
308.15 K, 101 kPa, x1 = 0.05	1.124
308.15 K, 101 kPa, x1 = 0.07	1.227
308.15 K, 101.33 kPa, x1 = 0.0971	1.256
308.15 K, 101.33 kPa, x1 = 0.1497	1.329
308.15 K, 101.33 kPa, x1 = 0.2011	1.301
308.15 K, 101.33 kPa, x1 = 0.3057	1.12
308.15 K, 101.33 kPa, x1 = 0.3979	0.9414
308.15 K, 101.33 kPa, x1 = 0.4978	0.7881
308.15 K, 101.33 kPa, x1 = 0.6026	0.6666
308.15 K, 101.33 kPa, x1 = 0.7025	0.5723
308.15 K, 101.33 kPa, x1 = 0.8003	0.5085
308.15 K, 101.33 kPa, x1 = 0.8978	0.4554
313.15 K, 101.33 kPa, x1 = 0.1497	1.171
313.15 K, 101.33 kPa, x1 = 0.2011	1.154
313.15 K, 101.33 kPa, x1 = 0.3057	1.01
313.15 K, 101.33 kPa, x1 = 0.3979	0.8555
313.15 K, 101.33 kPa, x1 = 0.4978	0.724
313.15 K, 101.33 kPa, x1 = 0.6026	0.6175
313.15 K, 101.33 kPa, x1 = 0.7025	0.5361
313.15 K, 101.33 kPa, x1 = 0.8003	0.4788
313.15 K, 101.33 kPa, x1 = 0.8978	0.4306
318.15 K, 101.33 kPa, x1 = 0.0971	0.9839
318.15 K, 101.33 kPa, x1 = 0.1497	1.041
318.15 K, 101.33 kPa, x1 = 0.2011	1.037
318.15 K, 101.33 kPa, x1 = 0.3057	0.9172
318.15 K, 101.33 kPa, x1 = 0.3979	0.7829
318.15 K, 101.33 kPa, x1 = 0.4978	0.6687
318.15 K, 101.33 kPa, x1 = 0.6026	0.576
318.15 K, 101.33 kPa, x1 = 0.7025	0.5036
318.15 K, 101.33 kPa, x1 = 0.8003	0.452
318.15 K, 101.33 kPa, x1 = 0.8978	0.4089
323.15 K, 101.33 kPa, x1 = 0.0971	0.8801
323.15 K, 101.33 kPa, x1 = 0.1497	0.9355
323.15 K, 101.33 kPa, x1 = 0.2011	0.9367
323.15 K, 101.33 kPa, x1 = 0.3057	0.8382
323.15 K, 101.33 kPa, x1 = 0.3979	0.7216
323.15 K, 101.33 kPa, x1 = 0.4978	0.621
323.15 K, 101.33 kPa, x1 = 0.6026	0.5365
323.15 K, 101.33 kPa, x1 = 0.7025	0.4716
323.15 K, 101.33 kPa, x1 = 0.8003	0.4277
323.15 K, 101.33 kPa, x1 = 0.8978	0.3879
